PubChem BioAssay (NCI)
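Tested at 5 concentrations; 48 h exposure; 96-well plates; endpoints linearly interpolated, else capped at highest concentration. Here, GI50 denotes the concentration required for 50% inhibition of growth. At the TGI there is no net growth.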

Tests used:
Assay in all cases: growth of human tumour cells (NCI), 48 h
SW-620 colon = system: SW-620 colon
HL-60(TB) leukemia = system: HL-60(TB) leukemia
A549 NSCLC = system: A549 NSCLC
SF-268 CNS = system: SF-268 CNS
SR leukemia = system: SR leukemia
A498 renal = system: A498 renal
786-0 renal = system: 786-0 renal
SNB-75 CNS = system: SNB-75 CNS
HOP-92 NSCLC = system: HOP-92 NSCLC
LOX IMVI melanoma = system: LOX IMVI melanoma

| SMILES | TGI (SW-620 colon) | TGI (HL-60(TB) leukemia) | TGI (A549 NSCLC) | TGI (SF-268 CNS) | TGI (SR leukemia) | TGI (A498 renal) | TGI (786-0 renal) | TGI (SNB-75 CNS) | GI50 (SW-620 colon) | GI50 (HL-60(TB) leukemia) | GI50 (A549 NSCLC) | GI50 (SF-268 CNS) | GI50 (HOP-92 NSCLC) | TGI (HOP-92 NSCLC) | GI50 (A498 renal) | GI50 (786-0 renal) | GI50 (LOX IMVI melanoma) | TGI (LOX IMVI melanoma) | GI50 (SNB-75 CNS) | GI50 (SR leukemia) |
| --- | --- | --- | --- | --- | --- | --- | --- | --- | --- | --- | --- | --- | --- | --- | --- | --- | --- | --- | --- | --- |
| O=C1NC2(CCCCC2)C2CCCCC(O)C12 (stereo unspecified) | > 100 µM | > 100 µM | > 100 µM | > 100 µM | > 100 µM | > 100 µM | > 100 µM | > 100 µM |  |  |  |  |  |  |  |  |  |  |  |  |
| COc1c2ccoc2c(/C=C/C=O)c2oc(-c3ccccc3)cc(=O)c12 | 5.21 µM | 5.62 µM | > 100 µM | > 100 µM |  | 40.7 µM | > 100 µM | 67.1 µM | 2.16 µM | 2.33 µM | 21.5 µM | 4.23 µM | 11.5 µM | > 100 µM | 7.44 µM | 26.9 µM | 1.48 µM | 2.8 µM | 8.3 µM |  |
| COc1cccc(NC(=O)CC(=O)n2nc(C)c(N=Nc3ccccc3)c2C)c1 | > 100 µM |  | > 100 µM | > 100 µM | > 100 µM | > 100 µM | > 100 µM | > 100 µM |  |  |  |  |  | > 100 µM |  |  |  | > 100 µM |  |  |
| CN(C)c1ccc(-c2cc(-c3ccc(Nc4nc(Nc5ccc(Cl)cc5)nc(Nc5ccc(Cl)cc5)n4)cc3)no2)cc1 | > 100 µM | 4.73 µM | 27.5 µM | 21.6 µM | 1.74 µM | 22.7 µM | 3.66 µM | 28.1 µM | 6.28 µM | 2.01 µM | 5.12 µM | 5.02 µM | 2.69 µM | 10.6 µM | 4.38 µM | 1.51 µM | 4.22 µM | 35.6 µM | 5.12 µM |  |
| O[C@H]1[C@H]2c3cc4c(cc3CN3CCC(=C[C@@H]1O)[C@H]23)OCO4 | > 36.9 µM | 6.37 µM | 13.1 µM | 3.57 µM | 4.24 µM | 12.8 µM | > 34 µM | 24.9 µM |  |  |  |  |  |  |  |  |  | 5.06 µM |  |  |
| CN(CC(=O)O)S(=O)(=O)c1ccc2ccccc2c1 | > 100 µM | > 100 µM | > 100 µM | > 100 µM |  | > 100 µM | > 100 µM | > 100 µM |  |  |  |  |  | > 100 µM |  |  |  | > 100 µM |  |  |
| Fc1ccc(Nc2ncnc3ccc(-c4cnc5[nH]ccc5c4)cc23)cc1Cl | > 47.3 µM | 40.1 µM | 5.33 µM | > 73.4 µM | > 100 µM |  | 3.27 µM | 3.42 µM | 4.02 µM | 7.76 µM | 1.79 µM | 3.47 µM | 1.68 µM | 5.49 µM |  | 1.57 µM | 3.95 µM | > 29.4 µM | 1.23 µM | 2.68 µM |
| CCOC(=O)C1=C(C)CC2C(=O)OC(=O)C2C1(C)C (stereo unspecified) | > 100 µM | > 100 µM | > 100 µM | > 100 µM | > 100 µM |  | > 100 µM |  |  |  |  |  |  | > 100 µM |  |  |  |  |  |  |
| CC1=C(C(=O)Nc2ccccc2C)C(c2ccco2)C(C(=O)Nc2ccccc2C)=C(C)N1C | > 100 µM | > 100 µM | > 100 µM | > 100 µM | > 100 µM |  | > 100 µM |  |  |  |  |  |  | > 100 µM |  |  |  | > 100 µM |  |  |
| CCOC(=O)c1ncn2c1[nH]c(=S)c1ccccc12 | 62 µM | > 100 µM | > 100 µM | > 100 µM |  | > 100 µM | > 100 µM | > 100 µM |  |  |  |  |  | > 100 µM |  |  |  | > 100 µM |  |  |
| COc1ccccc1NC(=O)CC(=O)n1nc(C)c(N=Nc2ccccc2C(=O)O)c1C | > 100 µM | > 100 µM | > 100 µM | > 100 µM |  | > 100 µM | > 100 µM | > 100 µM |  |  |  |  |  |  |  |  |  | > 100 µM |  |  |
| COc1ccc(-c2cc(=O)c3ccc(O)cc3o2)c(OC)c1OC | > 100 µM | > 100 µM | > 100 µM | > 100 µM |  |  | > 100 µM | 71.4 µM |  |  |  |  |  | > 100 µM |  |  |  | > 100 µM |  |  |
| CSc1ccccc1C#C/C=C\C#Cc1ccccc1N1CCCC1=O | > 17.6 µM |  | > 50 µM | > 50 µM |  | > 50 µM | > 50 µM | > 50 µM |  | 2.43 µM | > 11 µM | > 10.2 µM |  | > 50 µM | > 50 µM | > 22 µM |  | > 50 µM | > 10.8 µM |  |
| COc1ccc2c(c1)C(=O)/C(=C/c1ccc(OCC(=O)Nc3nccs3)cc1)O2 | 10.2 µM | 0.413 µM | 16 µM |  | 1.15 µM | 26.2 µM | 0.563 µM | 9.38 µM | 2.88 µM | 0.187 µM | 1.76 µM |  | 0.161 µM | 0.369 µM | 7.99 µM | 0.237 µM | 0.057 µM | 0.108 µM | 0.629 µM | 0.27 µM |
| CC[C@@]12CCCN3CC[C@]4(c5cccc(OC)c5N(C(C)=O)[C@@H]4CC1)[C@H]32 | > 100 µM | 44.6 µM | > 100 µM | > 100 µM | 55.9 µM | > 100 µM | > 100 µM |  |  |  |  |  |  | > 100 µM |  |  |  | > 100 µM |  |  |
| CC(=O)OC1COC(n2c(=S)n(-c3ccc(C)cc3)c(=O)c3ccccc32)C(OC(C)=O)C1OC(C)=O (stereo unspecified) | > 100 µM |  | > 100 µM | > 100 µM |  | > 100 µM | > 100 µM | > 100 µM |  |  |  |  |  | > 100 µM |  |  |  | > 100 µM |  |  |
| COc1ccc2nc3cc(Cl)ccc3c(Sc3ccccc3[N+](=O)[O-])c2c1 | > 100 µM |  | > 100 µM | > 100 µM | > 100 µM | > 100 µM | > 100 µM | 37.3 µM |  |  |  |  |  | > 100 µM |  |  |  | > 100 µM |  |  |
| CC1=C(C(=O)Nc2ccc(F)c(Cl)c2)C(c2ccc(Cl)cc2)NC(=O)N1 (stereo unspecified) | 66 µM | 1.87 µM | 46.3 µM | 73.4 µM |  | 29 µM | 31.7 µM | 30.5 µM | 24.8 µM | 0.083 µM | 20.1 µM | 22.1 µM | 11.8 µM | 26.6 µM | 13.9 µM | 16.5 µM | 16.6 µM | 32 µM | 5.28 µM |  |
